Measurements as given in patent US20260248771A1, “VALBENAZINE, A VMAT2 INHIBITOR, AS A FREE BASE A TOSYLATE OR DITOSYLATE SALT, FOR USE IN THE TREATMENT OF CHOREA ASSOCIATED WITH HUNTINGTON'S DISEASE” (Neurocrine Biosciences, Inc., priority 2022, published 2026).

How the values were obtained:
Assay type in all cases: in vivo, human
subjects with HD [1] = assay: Phase 3 study: Patient Global Impression of Change (PGI-C) response status
Description: In certain embodiments, the method is effective to result in an improvement in Patient Global Impression of Change (PGI-C) response status, wherein subjects whose score is either a 1 (“very much improved”) or a 2 (“much improved”) in PGI-C were classified as responders. In certain embodiments, at least about 20%, such as at least about 25%, at least about 30%, at least about 35%, at least about 40%, at least about 50%, at least about 55%, were classified as responders. In certain embodiments, at least about 25% of subjects were classified as responders after 12 weeks of treatment.
(§1) A Phase 3, randomized, double-blind, placebo-controlled study to evaluate the efficacy, safety, and tolerability of once-daily valbenazine in subjects with HD was conducted. The study included a 4-week screening period, an 8-week dose-adjustment period, a 4-week maintenance period, and a final study visit 2 weeks following the final dose of study drug.
Secondary endpoints included: • Clinical Global Impression of Change (CGI-C) response status ([…] of “very much improved” or “much improved”) at Week 12; • Patient Global Impression of Change (PGI-C) response status ([…] of “very much improved” or “much improved”) at Week 12; • Change from baseline to Week 12 in the Quality of Life in Neurological Disorders Upper Extremity Function; and • Change from baseline to Week 12 in the Neuro-QoL Lower Extremity Function.
(§2) Exploratory endpoints included: • Wearable movement sensors (in select sites; optional participation) using MC10 Inc., BIOSTAMP® NPOINT® system • Huntington Disease Health Index • Changes from the screening period baseline to each postbaseline study visit (Weeks 2 through 12) in the TMC based on site assessments • Changes from the screening period baseline to maintenance (the average of the Week 10 and Week 12 assessments) in the TMC based on video recording central rater assessments • CGI-C response at Weeks 2 through 10 • PGI-C response at Weeks 2 through 10 • The change from baseline to Weeks 4, 8, and 10 in the Neuro-QoL Upper Extremity Function T-score. • The change from baseline to Weeks 4, 8, and 10 in the Neuro-QoL Lower Extremity Function T-score • CGI-S at Weeks 2 through 12 • PGI-S at Weeks 2 through 12 • SF-36 at Week 12 • HD-HI at Week 10 and Week 12 • EQ-5D-5L at Week 10 and Week 12 • UHDRS scores for motor, behavior, and functional capacity assessment at Weeks 2 through 12 • Other UHDRS scores including functional assessment and independence scale at Week 12 • AS at Week 12 • Change from screening period in physical activity by movement sensors at the Week 10 visit period

subjects with HD [2] = assay: Phase 3 study: Neuro-QoL Upper Extremity Function T-score
Description: (§3) As used herein, “Neuro-QoL” is a set of self-report measures that assesses the health-related quality of life (HRQOL) of adults and children with neurological disorders. Neuro-QoL Upper Extremity Function scale measures one's ability across fine motor and activities of daily living involving digital, manual and reach-related function and self-care. Neuro-QoL Lower Extremity Function scale measures one's ability to carry out various activities involving the trunk region and increasing degrees of bodily movement, ambulation, balance or endurance. See, National Institute of Neurological Disorders and Stroke (NINDS). User Manual for the Quality of Life in Neurological Disorders (Neuro-QoL) Measures, Version 2.0, March 2015, which is incorporated herein by reference in its entirety.
as §1, with “drug. […]” for “drug.”

subjects with HD [3] = assay: Phase 3 study: Neuro-QoL Lower Extremity Function T-score
Description: as §3
as §1, with “drug. […]” for “drug.”

subjects with HD [4] = assay: Phase 3 study: Short Form 36 Health Survey (SF-36); conditions: Week 12
Description: as §2
The SF-36 is 36-item questionnaire that measures health on 8 dimensions. […]

subjects with HD [5] = assay: Phase 3 study: Huntington Disease Health Index (HD-HI); conditions: for HD-HI hand and arm function subscale, change from baseline / HD-HI involuntary movements subscale, change from baseline / HD-HI mobility subscale, change from baseline: valbenazine group
Description: as §2
The HD-HI includes 13 subscales that measure 13 individual areas of health in patients with HD. Observed values and change from baseline were summarized descriptively for each subscale and the total instrument score by treatment group and visit.

subjects with HD [6] = assay: Phase 3 study: EuroQol 5 Dimensions 5 Levels (EQ-5D-5L)
Description: as §2, with “visit period […]” for “visit period”

subjects with HD [7] = assay: Phase 3 study: UHDRS functional assessment, independence scale, total functional capacity; conditions: baseline to Week 12; either treatment group
Description: as §2
The functional capacity portion of the UHDRS consists of 5 items. […]

subjects with HD [8] = assay: Phase 3 study: Anosognosia Scale; conditions: baseline to Week 12; either treatment group
Description: as §2

COc1cc2c(cc1OC)[C@H]1C[C@@H](OC(=O)[C@@H](N)C(C)C)[C@H](CC(C)C)CN1CC2 [Valbenazine, (S)-2-amino-3-methyl-butyric acid (2R,3R,11bR)-3-isobutyl-9,10-dimethoxy-1,3,4,6,7,11b-hexahydro-2H-pyrido[2,1-a]isoquinolin-2-yl ester]
PGI-C response rate difference between treatment groups (valbenazine minus placebo) (subjects with HD [1]; Week 2): through 10 as follows: Week 2 (18.52% [95% CI: 5.48, 31.41], | PGI-C response rate difference between treatment groups (valbenazine minus placebo) (subjects with HD [1]; Week 4): nominal p = 0.0042), Week 4 (18.57% [95% CI: 3.79, 32.70], nominal | PGI-C response rate difference between treatment groups (valbenazine minus placebo) (subjects with HD [1]; Week 6): p = 0.0120), Week 6 (23.08% [95% CI: 5.60, 39.04], nominal | PGI-C response rate difference between treatment groups (valbenazine minus placebo) (subjects with HD [1]; Week 8): p = 0.0064), Week 8 (26.44% [95% CI: 7.70, 42.49], nominal | PGI-C response rate difference between treatment groups (valbenazine minus placebo) (subjects with HD [1]; Week 10): p = 0.0037), and Week 10 (16.94% [95% CI: −1.37, 34.63], nominal | PGI-C @ week 12, % responders (subjects with HD [1]; Week 12, valbenazine group): 52.7% | PGI-C @ week 12, % responders, Difference (subjects with HD [1]; Week 12, valbenazine vs placebo): 26.3% | Neuro-QoL Upper Extremity Function T Score CFB @ week 12, LS Mean (subjects with HD [2]; valbenazine group): −1.58 | Neuro-QoL Upper Extremity Function T Score CFB @ week 12, LS Mean, Difference (subjects with HD [2]; valbenazine vs placebo): 1.42 | Neuro-QoL Lower Extremity Function T Score CFB @ week 12, LS Mean (subjects with HD [3]; valbenazine group): −0.27 | Neuro-QoL Lower Extremity Function T Score CFB @ week 12, LS Mean, Difference (subjects with HD [3]; valbenazine vs placebo): −0.88 | SF-36 subscales and summary scales, differences between treatment groups (subjects with HD [4]): No notable differences were observed at Week 12 between treatment | SF-36 subscales or summary scales, worsening from baseline (subjects with HD [4]; valbenazine group): No worsening from baseline was observed for the valbenazine group | HD-HI hand and arm function subscale, change from baseline (subjects with HD [5]; Week 10): −7.154 | HD-HI involuntary movements subscale, change from baseline (subjects with HD [5]; Week 10): −12.220 | HD-HI mobility subscale, change from baseline (subjects with HD [5]; Week 10): placebo for mobility (Week 10: −6.319 valbenazine vs −4.131 | HD-HI involuntary movements subscale, LS mean difference between treatment groups (subjects with HD [5]; Week 12, ANCOVA model): LS mean difference between treatment groups of −6.662 (95% | HD-HI hand and arm function subscale, change from baseline (subjects with HD [5]; Week 12): −7.169 | HD-HI involuntary movements subscale, change from baseline (subjects with HD [5]; Week 12): −11.195 | HD-HI mobility subscale, change from baseline (subjects with HD [5]; Week 12): placebo; Week 12: −4.208 vs −2.708), involuntary movements (Week | HD-HI total score, changes from baseline (subjects with HD [5]; Weeks 10 and 12): valbenazine group. No meaningful changes in the HD-HI total score | EQ-5D-5L health index score and distribution of scores for each dimension, differences between treatment groups (subjects with HD [6]; baseline to Weeks 10 and 12): No notable differences between treatment groups were observed | EQ-5D-5L shift toward worsening in any dimension (subjects with HD [6]; valbenazine group): index score and distribution of scores for each dimension. No shift | UHDRS functional assessment, independence, and total functional capacity scores, changes from baseline (subjects with HD [7]): No clinically meaningful changes were noted from baseline to Week | Anosognosia Scale score, changes from baseline (subjects with HD [8]): No clinically meaningful changes were noted from baseline to Week
